According to ChEMBL document CHEMBL1147146, “Cells lacking DNA topoisomerase II beta are resistant to genistein” (J Nat Prod, 2007):
Active and inactive are the calls of the source. The calls are words filed in the database; no cut-off is given here.

Legend:
[1] = biological target: T1, DNA topoisomerase 1 (Homo sapiens) (UniProt P11387); conditions: K562
T1 sequence (whole entry): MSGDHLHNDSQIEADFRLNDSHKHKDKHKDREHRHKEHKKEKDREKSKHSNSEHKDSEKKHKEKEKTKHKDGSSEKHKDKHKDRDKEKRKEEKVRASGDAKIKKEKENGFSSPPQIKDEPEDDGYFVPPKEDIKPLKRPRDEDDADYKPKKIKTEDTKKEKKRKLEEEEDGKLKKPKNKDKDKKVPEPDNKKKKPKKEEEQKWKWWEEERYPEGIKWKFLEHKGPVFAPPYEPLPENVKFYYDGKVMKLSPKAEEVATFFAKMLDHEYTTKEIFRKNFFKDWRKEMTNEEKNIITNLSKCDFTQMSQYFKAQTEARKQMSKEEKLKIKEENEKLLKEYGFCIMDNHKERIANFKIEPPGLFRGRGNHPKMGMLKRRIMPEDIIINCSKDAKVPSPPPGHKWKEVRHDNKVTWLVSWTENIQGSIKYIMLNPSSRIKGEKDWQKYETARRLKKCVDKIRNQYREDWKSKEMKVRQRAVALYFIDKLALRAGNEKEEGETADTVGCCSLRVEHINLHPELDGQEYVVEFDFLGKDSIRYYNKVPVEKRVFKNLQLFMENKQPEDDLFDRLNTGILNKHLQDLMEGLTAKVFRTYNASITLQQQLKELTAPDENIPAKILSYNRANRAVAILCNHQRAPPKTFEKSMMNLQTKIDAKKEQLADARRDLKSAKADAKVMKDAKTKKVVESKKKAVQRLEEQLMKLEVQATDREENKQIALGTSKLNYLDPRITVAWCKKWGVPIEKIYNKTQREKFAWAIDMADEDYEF
Description: Induction of topoisomerase 1-DNA complexes in K562 cells assessed as integrated green fluorescence at 10 times their IC50 after 8 hrs by TARDIS assay

[2] = biological target: T1, DNA topoisomerase 1 (Homo sapiens); conditions: K562; remark: listed apart in the source
Description: Induction of topoisomerase 1-DNA complexes in K562 cells assessed as integrated green fluorescence at 10 times their IC50 after 24 hrs by TARDIS assay

[3] = biological target: T1, DNA topoisomerase 1 (Homo sapiens); conditions: K562, 10 uM
Description: Induction of topoisomerase 1-DNA complexes in K562 cells assessed as integrated green fluorescence at 10 uM after 1 hr by TARDIS assay

[4] = biological target: T1, DNA topoisomerase 1 (Homo sapiens); conditions: K562; remark: listed apart in the source
Description: Induction of topoisomerase 1-DNA complexes in K562 cells assessed as integrated green fluorescence at 10 times their IC50 after 2 hrs by TARDIS assay

[5] = biological target: DNA topoisomerase 2-alpha (Homo sapiens) (UniProt P11388); conditions: K562
DNA topoisomerase 2-alpha (Homo sapiens), sequence (P11388 whole entry): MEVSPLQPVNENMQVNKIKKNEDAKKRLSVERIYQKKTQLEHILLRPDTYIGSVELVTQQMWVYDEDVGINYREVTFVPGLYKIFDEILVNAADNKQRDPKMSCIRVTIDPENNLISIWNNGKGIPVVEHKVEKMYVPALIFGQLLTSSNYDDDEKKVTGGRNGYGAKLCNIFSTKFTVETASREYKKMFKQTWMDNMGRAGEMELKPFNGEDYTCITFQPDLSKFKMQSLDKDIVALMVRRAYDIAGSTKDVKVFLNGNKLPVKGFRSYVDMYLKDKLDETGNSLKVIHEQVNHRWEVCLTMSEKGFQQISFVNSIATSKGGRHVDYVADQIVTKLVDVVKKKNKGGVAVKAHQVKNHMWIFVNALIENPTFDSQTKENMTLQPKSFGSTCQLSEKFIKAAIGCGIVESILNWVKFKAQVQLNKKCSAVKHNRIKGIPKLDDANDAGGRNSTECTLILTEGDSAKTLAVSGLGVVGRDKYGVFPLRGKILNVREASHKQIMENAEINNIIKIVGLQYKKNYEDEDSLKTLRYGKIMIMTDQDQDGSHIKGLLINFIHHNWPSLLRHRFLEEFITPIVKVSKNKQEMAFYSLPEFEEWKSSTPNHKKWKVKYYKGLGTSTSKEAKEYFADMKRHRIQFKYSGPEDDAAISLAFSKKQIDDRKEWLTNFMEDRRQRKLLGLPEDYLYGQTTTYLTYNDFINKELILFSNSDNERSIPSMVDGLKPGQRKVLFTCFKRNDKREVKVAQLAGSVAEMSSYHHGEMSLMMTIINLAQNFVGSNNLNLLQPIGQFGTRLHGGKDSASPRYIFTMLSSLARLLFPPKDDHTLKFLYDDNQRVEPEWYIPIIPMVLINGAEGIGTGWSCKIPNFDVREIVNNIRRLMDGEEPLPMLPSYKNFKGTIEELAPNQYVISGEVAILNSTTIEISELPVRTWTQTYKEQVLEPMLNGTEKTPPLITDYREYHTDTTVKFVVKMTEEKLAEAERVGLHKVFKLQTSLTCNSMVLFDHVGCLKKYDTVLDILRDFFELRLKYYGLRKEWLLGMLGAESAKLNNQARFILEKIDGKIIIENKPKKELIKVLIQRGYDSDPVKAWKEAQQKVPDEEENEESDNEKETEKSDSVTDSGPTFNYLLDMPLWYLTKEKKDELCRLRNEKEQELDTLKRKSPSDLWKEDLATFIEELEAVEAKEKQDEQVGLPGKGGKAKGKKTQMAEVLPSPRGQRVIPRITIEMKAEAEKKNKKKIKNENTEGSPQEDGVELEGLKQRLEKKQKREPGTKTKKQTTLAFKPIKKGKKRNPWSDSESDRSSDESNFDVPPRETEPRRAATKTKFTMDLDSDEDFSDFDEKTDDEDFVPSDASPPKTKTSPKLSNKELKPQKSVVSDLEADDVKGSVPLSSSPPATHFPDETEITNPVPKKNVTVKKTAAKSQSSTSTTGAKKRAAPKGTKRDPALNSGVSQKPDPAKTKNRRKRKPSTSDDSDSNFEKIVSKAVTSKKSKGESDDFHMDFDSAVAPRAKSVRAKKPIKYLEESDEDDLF
Description: Induction of human recombinant topoisomerase 2-DNA complexes in K562 cells assessed as integrated green fluorescence at 10 times their IC50 after 24 hrs by TARDIS assay

[6] = biological target: DNA topoisomerase 2-alpha (Homo sapiens) (UniProt P11388); conditions: K562; remark: listed apart in the source
Description: Induction of human recombinant topoisomerase 2-DNA complexes in K562 cells assessed as integrated green fluorescence at 10 times their IC50 after 2 hrs by TARDIS assay

[7] = biological target: DNA topoisomerase 2-alpha (Homo sapiens) (UniProt P11388); conditions: K562, 10 uM
Description: Induction of human recombinant topoisomerase 2-DNA complexes in K562 cells assessed as integrated green fluorescence at 10 uM after 2 hrs by TARDIS assay

[8] = biological target: DNA topoisomerase 2-beta (Homo sapiens) (UniProt Q02880); assay: Induction of human recombinant topoisomerase 2beta-DNA complex in K562 cells assessed as integrated fluorescence at 10 uM after 2 hrs by TARDIS assay; type: cell-based
DNA topoisomerase 2-beta (Homo sapiens), sequence (Q02880 whole entry): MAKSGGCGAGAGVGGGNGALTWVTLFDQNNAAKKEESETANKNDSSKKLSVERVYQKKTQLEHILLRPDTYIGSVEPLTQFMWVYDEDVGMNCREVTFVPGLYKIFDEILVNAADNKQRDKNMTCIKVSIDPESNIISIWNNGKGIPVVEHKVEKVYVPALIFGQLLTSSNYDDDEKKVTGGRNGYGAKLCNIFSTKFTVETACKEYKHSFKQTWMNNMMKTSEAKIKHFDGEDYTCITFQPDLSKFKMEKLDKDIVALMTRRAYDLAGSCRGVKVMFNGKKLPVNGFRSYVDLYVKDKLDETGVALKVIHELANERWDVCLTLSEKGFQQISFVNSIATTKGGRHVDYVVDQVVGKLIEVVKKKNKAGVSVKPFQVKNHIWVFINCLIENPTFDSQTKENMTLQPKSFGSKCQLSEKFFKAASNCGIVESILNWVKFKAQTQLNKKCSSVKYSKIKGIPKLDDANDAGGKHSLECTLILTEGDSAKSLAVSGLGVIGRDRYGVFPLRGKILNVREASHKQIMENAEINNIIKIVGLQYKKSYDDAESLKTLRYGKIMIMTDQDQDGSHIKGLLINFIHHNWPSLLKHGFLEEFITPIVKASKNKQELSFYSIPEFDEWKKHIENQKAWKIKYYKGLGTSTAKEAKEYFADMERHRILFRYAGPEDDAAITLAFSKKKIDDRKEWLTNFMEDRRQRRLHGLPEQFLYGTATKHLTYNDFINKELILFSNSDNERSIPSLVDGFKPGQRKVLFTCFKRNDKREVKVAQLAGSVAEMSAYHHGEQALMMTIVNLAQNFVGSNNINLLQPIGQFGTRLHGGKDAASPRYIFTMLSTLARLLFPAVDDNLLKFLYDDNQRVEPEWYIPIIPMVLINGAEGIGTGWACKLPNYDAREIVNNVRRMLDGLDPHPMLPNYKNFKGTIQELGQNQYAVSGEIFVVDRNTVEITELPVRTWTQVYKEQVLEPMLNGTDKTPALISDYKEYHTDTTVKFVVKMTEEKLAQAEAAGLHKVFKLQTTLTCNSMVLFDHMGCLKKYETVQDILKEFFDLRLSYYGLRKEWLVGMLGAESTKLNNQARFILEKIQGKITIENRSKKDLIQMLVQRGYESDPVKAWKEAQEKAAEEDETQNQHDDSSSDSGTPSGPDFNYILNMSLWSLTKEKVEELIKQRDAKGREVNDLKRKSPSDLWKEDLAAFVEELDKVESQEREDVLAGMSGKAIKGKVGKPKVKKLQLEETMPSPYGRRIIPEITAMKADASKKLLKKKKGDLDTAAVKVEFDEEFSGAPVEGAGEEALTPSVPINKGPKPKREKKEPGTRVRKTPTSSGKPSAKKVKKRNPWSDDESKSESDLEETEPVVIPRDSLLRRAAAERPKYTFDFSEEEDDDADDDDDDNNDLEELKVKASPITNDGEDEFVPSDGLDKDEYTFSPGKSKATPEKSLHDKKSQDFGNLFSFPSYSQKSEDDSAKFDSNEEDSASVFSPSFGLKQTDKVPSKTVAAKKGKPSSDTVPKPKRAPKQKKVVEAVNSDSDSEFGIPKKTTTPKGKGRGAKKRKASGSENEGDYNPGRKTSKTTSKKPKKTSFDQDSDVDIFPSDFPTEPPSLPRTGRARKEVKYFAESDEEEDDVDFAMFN

[9] = biological target: DNA topoisomerase 2-alpha (Homo sapiens) (UniProt P11388); conditions: K562; remark: listed apart in the source
Description: Induction of human recombinant topoisomerase 2-DNA complexes in K562 cells assessed as integrated green fluorescence at 10 times their IC50 after 8 hrs by TARDIS assay

[10] = biological target: T1, DNA topoisomerase 1 (Homo sapiens); assay: Induction of topoisomerase 1-DNA complexes in K562 cells assessed as integrated green fluorescence at 175 uM after 2 hrs by TARDIS assay; type: cell-based
[11] = Survival of mouse topoisomerase 2-beta -/- cells at 100 uM after 4 hrs by colonogenic assay; type: functional
Mus musculus [12] = species on record: Mus musculus; assay: Growth inhibition of mouse topoisomerase 2-beta -/- cells at 100 to 300 uM after 4 hrs by XTT assay; type: functional
[13] = biological target: DNA topoisomerase 2-alpha (Homo sapiens) (UniProt P11388); assay: Induction of human recombinant topoisomerase 2-DNA complexes in K562 cells assessed as integrated green fluorescence at 175 uM after 24 hrs by TARDIS assay; type: cell-based
[14] = biological target: T1, DNA topoisomerase 1 (Homo sapiens); assay: Induction of topoisomerase 1-DNA complexes in K562 cells assessed as integrated green fluorescence at 175 uM after 0.5 hrs by TARDIS assay; type: cell-based
[15] = Growth inhibition of mouse topoisomerase 2-beta -/- cells at 300 uM after 4 hrs by colonogenic assay; type: functional; design: scale not given: the % may be the effect or the level left
[16] = biological target: DNA topoisomerase 2-alpha (Homo sapiens) (UniProt P11388); assay: Induction of human recombinant topoisomerase 2-DNA complexes in K562 cells assessed as integrated green fluorescence at 175 uM after 0.5 hrs by TARDIS assay; type: cell-based
K562 = assay: Growth inhibition of K562 cells by XTT assay after 5 days; type: functional, cell-based; conditions: Homo sapiens, K562, 120 h
[17] = biological target: T1, DNA topoisomerase 1 (Homo sapiens); assay: Inhibition of topoisomerase 1 assessed as reduction of camptothecin-induced topo 1-DNA complexes in K562 cells by measuring integrated fluorescence at 17 uM after 24 hrs by TARDIS assay; type: cell-based
[18] = biological target: DNA topoisomerase 2-alpha (Homo sapiens) (UniProt P11388); assay: Induction of human recombinant topoisomerase 2-DNA complexes in K562 cells assessed as integrated green fluorescence at 175 uM after 2 hrs by TARDIS assay; type: cell-based
[19] = biological target: T1, DNA topoisomerase 1 (Homo sapiens); assay: Inhibition of topoisomerase 1 assessed as reduction of camptothecin-induced topo 1-DNA complexes in K562 cells by measuring integrated fluorescence at 175 uM after 24 hrs by TARDIS assay; type: cell-based
[20] = biological target: T1, DNA topoisomerase 1 (Homo sapiens); assay: Induction of topoisomerase 1-DNA complexes in K562 cells assessed as integrated green fluorescence at 175 uM after 6 hrs by TARDIS assay; type: cell-based
[21] = Survival of mouse wild-type topoisomerase 2beta +/+cells at 100 uM after 4 hrs by colonogenic assay; type: functional
[22] = Growth inhibition of mouse knock out topoisomerase 2-beta -/- cells after 4 hrs by colonogenic assay; type: functional
[23] = biological target: DNA topoisomerase 2-alpha (Homo sapiens) (UniProt P11388); assay: Induction of human recombinant topoisomerase 2-DNA complexes in K562 cells assessed as integrated green fluorescence at 175 uM after 6 hrs by TARDIS assay; type: cell-based
[24] = biological target: DNA topoisomerase 2-alpha (Homo sapiens) (UniProt P11388); assay: Inhibition of human recombinant topoisomerase 2 assessed as reduction of etoposide-induced topo 2-DNA complexes in K562 cells by measuring integrated fluorescence at 175 uM after 24 hrs by TARDIS assay; type: cell-based
[25] = biological target: DNA topoisomerase 2-alpha (Homo sapiens) (UniProt P11388); assay: Inhibition of human recombinant topoisomerase 2 assessed as reduction of etoposide-induced topo 2-DNA complexes in K562 cells by measuring integrated fluorescence at 17 uM after 24 hrs by TARDIS assay; type: cell-based
[26] = biological target: DNA topoisomerase 2-beta (Homo sapiens) (UniProt Q02880); assay: Induction of human recombinant topoisomerase 2beta-DNA complex in K562 cells assessed as integrated fluorescence at 175 uM after 2 hrs by TARDIS assay; type: cell-based
Mus musculus [27] = species on record: Mus musculus; assay: Growth inhibition of mouse topoisomerase 2-beta +/+ cells at 100 to 300 uM after 4 hrs by XTT assay; type: functional
[28] = Growth inhibition of mouse wild-type topoisomerase 2-beta +/+ cells after 4 hrs by colonogenic assay; type: functional
[29] = biological target: T1, DNA topoisomerase 1 (Homo sapiens); assay: Induction of topoisomerase 1-DNA complexes in K562 cells assessed as integrated green fluorescence at 175 uM after 24 hrs by TARDIS assay; type: cell-based
[30] = biological target: T1, DNA topoisomerase 1 (Homo sapiens); assay: Induction of topoisomerase 1-DNA complexes in K562 cells assessed as integrated green fluorescence at 146 uM after 6 hrs by TARDIS assay; type: cell-based
[31] = biological target: T1, DNA topoisomerase 1 (Homo sapiens); assay: Inhibition of topoisomerase 1 assessed as reduction of camptothecin-induced topo 1-DNA complexes in K562 cells by measuring integrated fluorescence at 146 uM after 24 hrs by TARDIS assay; type: cell-based
[32] = biological target: T1, DNA topoisomerase 1 (Homo sapiens); assay: Inhibition of topoisomerase 1 assessed as reduction of camptothecin-induced topo 1-DNA complexes in K562 cells by measuring integrated fluorescence at 14 uM after 24 hrs by TARDIS assay; type: cell-based
[33] = biological target: DNA topoisomerase 2-alpha (Homo sapiens) (UniProt P11388); assay: Induction of human recombinant topoisomerase 2-DNA complexes in K562 cells assessed as integrated green fluorescence at 146 uM after 24 hrs by TARDIS assay; type: cell-based
[34] = biological target: T1, DNA topoisomerase 1 (Homo sapiens); assay: Induction of topoisomerase 1-DNA complexes in K562 cells assessed as integrated green fluorescence at 146 uM after 2 hrs by TARDIS assay; type: cell-based
[35] = biological target: DNA topoisomerase 2-alpha (Homo sapiens) (UniProt P11388); assay: Induction of human recombinant topoisomerase 2-DNA complexes in K562 cells assessed as integrated green fluorescence at 146 uM after 6 hrs by TARDIS assay; type: cell-based
[36] = biological target: T1, DNA topoisomerase 1 (Homo sapiens); assay: Induction of topoisomerase 1-DNA complexes in K562 cells assessed as integrated green fluorescence at 146 uM after 0.5 hrs by TARDIS assay; type: cell-based
[37] = biological target: DNA topoisomerase 2-alpha (Homo sapiens) (UniProt P11388); assay: Induction of human recombinant topoisomerase 2-DNA complexes in K562 cells assessed as integrated green fluorescence at 146 uM after 0.5 hrs by TARDIS assay; type: cell-based
[38] = biological target: DNA topoisomerase 2-alpha (Homo sapiens) (UniProt P11388); assay: Induction of human recombinant topoisomerase 2-DNA complexes in K562 cells assessed as integrated green fluorescence at 146 uM after 2 hrs by TARDIS assay; type: cell-based
[39] = biological target: DNA topoisomerase 2-alpha (Homo sapiens) (UniProt P11388); assay: Inhibition of human recombinant topoisomerase 2 assessed as reduction of etoposide-induced topo 2-DNA complexes in K562 cells by measuring integrated fluorescence at 146 uM after 24 hrs by TARDIS assay; type: cell-based
[40] = biological target: DNA topoisomerase 2-alpha (Homo sapiens) (UniProt P11388); assay: Inhibition of human recombinant topoisomerase 2 assessed as reduction of etoposide-induced topo 2-DNA complexes in K562 cells by measuring integrated fluorescence at 14 uM after 24 hrs by TARDIS assay; type: cell-based
[41] = biological target: T1, DNA topoisomerase 1 (Homo sapiens); assay: Induction of topoisomerase 1-DNA complexes in K562 cells assessed as integrated green fluorescence at 146 uM after 24 hrs by TARDIS assay; type: cell-based

CC[C@@]1(O)C(=O)OCc2c1cc1n(c2=O)Cc2cc3ccccc3nc2-1
Fluorescence intensity [1]: 1.58 | Fluorescence intensity [2]: 1.04 | Fluorescence intensity [3]: 11.4 | Fluorescence intensity [4]: 2.51

COc1cc([C@@H]2c3cc4c(cc3[C@@H](O[C@@H]3O[C@@H]5CO[C@@H](C)O[C@H]5[C@H](O)[C@H]3O)[C@H]3COC(=O)[C@H]23)OCO4)cc(OC)c1O
Fluorescence intensity [5]: 23.4 | Fluorescence intensity [6]: 13.2 | Fluorescence intensity [7]: 49.4 | Fluorescence intensity [8]: 3940 | Fluorescence intensity [9]: 20.9

O=c1c(-c2ccc(O)cc2)coc2cc(O)cc(O)c12 [GENISTEIN]
Fluorescence intensity [10]: 0.44 | Activity [11]: 50% | Activity (Mus musculus [12]): inactive | Fluorescence intensity [13]: 12.6 | Fluorescence intensity [14]: 0.96 | Activity [15]: 50% | Fluorescence intensity [16]: 7.03 | IC50 (K562): 17.6 µM | Fluorescence intensity [17]: 112% | Fluorescence intensity [18]: 20.4 | Fluorescence intensity [19]: 148% | Fluorescence intensity [20]: 0.44 | Activity [21]: 0% | IC50 [22]: 300 µM | Fluorescence intensity [23]: 7.03 | Fluorescence intensity [24]: 67% | Fluorescence intensity [25]: 95% | Fluorescence intensity [26]: 12700 | Activity (Mus musculus [27]): Active | IC50 [28]: 47 µM | Fluorescence intensity [29]: 0.18

O=c1cc(-c2ccc(O)c(O)c2)oc2cc(O)cc(O)c12 [LUTEOLIN]
Fluorescence intensity [30]: 0.51 | Fluorescence intensity [31]: 52% | Fluorescence intensity [32]: 99% | Fluorescence intensity [33]: 5.05 | Activity [34]: 0.28 | IC50 (K562): 14.7 µM | Fluorescence intensity [35]: 7.39 | Fluorescence intensity [36]: 0.49 | Fluorescence intensity [37]: 3.17 | Activity [38]: 4.08 | Fluorescence intensity [39]: 85% | Fluorescence intensity [40]: 133% | Fluorescence intensity [41]: 0.19
